Experiment: In vitro release rate evaluation: evaporative weight loss of butylate from microcapsules under vacuum (Cahn RH electrobalance)
Assay type: physicochemical
Conditions: 40° C.
Method: This composition was tested in vitro for release rate in the presence of acid as follows: 5.0 grams of formulation were diluted with 25.0 grams of water. Two 1.5 gram aliquots were removed, vacuum filtered onto 0.22 μm filter paper, and placed in a jar (to reduce volatilization of butylate) until the release rate measurement was performed. The remainder of the solution was treated with a concentrated solution of p-toluenesulfonic acid to pH 2.02. The acid treated solution was rolled for 10 minutes after which several 1.5 gram aliquots of the acid treated solution were removed, vacuum filtered onto 0.22 μm filter paper, and placed in a jar (to reduce volatilization butylate) until the release rate measurement was performed.
Release rate studies were conducted employing a Cahn RH electrobalance to monitor the rate of evaporative weight loss of butylate (a model compound with a high vapor pressure) from microcapsules under vacuum. The sample (on the filter paper) was placed on the sample pan of the electrobalance and allowed to equilibrate at 40° C. for 10-15 minutes in the sealed system prior to placing under vacuum. The weight loss, measured with the electrobalance enclosed under vacuum, was recorded on a chart recorder.

CCSC(=O)N(CC(C)C)CC(C)C [butylate, S-ethyl diisobutyl thiocarbamate]
release rate of non-encapsulated butylate: The release rate of non-encapsulated butylate was determined to be about 17-19 mg/min.

Source: patent US6337130B1, “Acid-triggered release microcapsules” (Zeneca Limited, priority 1998, dated 2002)
